In ChEMBL document CHEMBL2331461, “Microfluidics assisted synthesis and bioevaluation of sinomenine derivatives as antiinflammatory agents” (Eur J Med Chem, 2013):
Activity calls are given as the source filed them. The rule behind the calls is not given here.

Tests used:
[1] = tested on: NIH3T3; experiment: Cytotoxicity against mouse NIH/3T3 cells assessed as growth inhibition after 24 hrs by MTT assay; type: cell-based
[2] = target: Tumor necrosis factor (Homo sapiens) (UniProt P01375); experiment: Inhibition of TNFalpha (unknown origin)-induced NF-kappaB activation in mouse NIH/3T3 cells assessed as inhibition of NF-kappaB binding to DNA at 20 uM after 6 hrs by luciferase reporter gene assay; type: cell-based; settings: NIH3T3
Tumor necrosis factor (Homo sapiens), sequence (P01375 whole entry): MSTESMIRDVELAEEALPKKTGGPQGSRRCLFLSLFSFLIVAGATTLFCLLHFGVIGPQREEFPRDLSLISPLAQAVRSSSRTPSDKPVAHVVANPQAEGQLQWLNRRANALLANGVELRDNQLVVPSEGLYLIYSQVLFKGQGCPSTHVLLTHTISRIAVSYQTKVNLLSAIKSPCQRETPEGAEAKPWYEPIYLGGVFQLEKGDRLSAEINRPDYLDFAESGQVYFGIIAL

[3] = tested on: Mus musculus; experiment: Antiinflammatory activity in ICR mouse assessed as inhibition of lambda-carrageenan-induced paw edema at 15 to 30 mg/kg, ip administered 2 hrs prior to carrageenan challenge measured after 6 to 18 hrs; type: functional, organism-based
[4] = tested on: Mus musculus; experiment: Antiinflammatory activity in ICR mouse assessed as inhibition of lambda-carrageenan-induced paw edema at 10 mg/kg, ip administered 2 hrs prior to carrageenan challenge measured after 2 to 18 hrs; type: functional, organism-based; set-up: dose 10 mg/kg
[5] = Mus musculus, NIH3T3, 24 h, read-out: IC50

Compound	IC50 [1, 5]	inhibition [2]	further results
COC(=O)[C@H]1C(c2cccc(Cl)c2)=NO[C@@H]1c1cc(OC)c(O)c2c1C[C@@H]1[C@@H]3C=C(OC)C(=O)C[C@]23CCN1C	71.3 µM	Active	–
COC1=C[C@H]2[C@H]3Cc4c(/C=C/C(=O)OCC(C)C)cc(OC)c(O)c4[C@@]2(CCN3C)CC1=O	> 100 µM	–	–
COC1=C[C@@H]2[C@@H]3Cc4ccc(OC)c(O)c4[C@]2(CCN3C)CC1=O [SINOMENINE]	> 100 µM	inactive	–
COC(=O)/C=C/c1cc(OC)c(O)c2c1C[C@@H]1[C@@H]3C=C(OC)C(=O)C[C@]23CCN1C	> 100 µM	–	–
COC(=O)[C@H]1C(c2ccc(Br)cc2)=NO[C@@H]1c1cc(OC)c(O)c2c1C[C@@H]1[C@@H]3C=C(OC)C(=O)C[C@]23CCN1C	55.7 µM	Active	–
COC(=O)[C@@H]1C(c2ccc(Cl)cc2)=NO[C@H]1c1cc(OC)c(O)c2c1C[C@@H]1[C@@H]3C=C(OC)C(=O)C[C@]23CCN1C	75.1 µM	inactive	–
CCCCC(CC)COC(=O)/C=C/c1cc(OC)c(O)c2c1C[C@@H]1[C@@H]3C=C(OC)C(=O)C[C@]23CCN1C (some centres undefined)	4.8 µM	–	–
COC(=O)[C@H]1C(c2ccc(C)cc2)=NO[C@@H]1c1cc(OC)c(O)c2c1C[C@@H]1[C@@H]3C=C(OC)C(=O)C[C@]23CCN1C	80.7 µM	Active	–
COC(=O)[C@H]1C(c2cccc(C)c2)=NO[C@@H]1c1cc(OC)c(O)c2c1C[C@@H]1[C@@H]3C=C(OC)C(=O)C[C@]23CCN1C	> 100 µM	Active	–
COC(=O)[C@H]1C(c2ccc(OC)cc2)=NO[C@@H]1c1cc(OC)c(O)c2c1C[C@@H]1[C@@H]3C=C(OC)C(=O)C[C@]23CCN1C	> 100 µM	Active	–
COC1=C[C@H]2[C@H]3Cc4c(/C=C/C(=O)OC5CCCCC5)cc(OC)c(O)c4[C@@]2(CCN3C)CC1=O	–	–	IC50 ([1]; nih3t3): ND(Insoluble)
CCOC(=O)/C=C/c1cc(OC)c(O)c2c1C[C@@H]1[C@@H]3C=C(OC)C(=O)C[C@]23CCN1C	> 100 µM	–	–
COC(=O)[C@@H]1C(c2ccccc2)=NO[C@H]1c1cc(OC)c(O)c2c1C[C@@H]1[C@@H]3C=C(OC)C(=O)C[C@]23CCN1C	> 100 µM	inactive	–
COC(=O)/C(C)=C/c1cc(OC)c(O)c2c1C[C@@H]1[C@@H]3C=C(OC)C(=O)C[C@]23CCN1C	> 100 µM	–	–
COC(=O)[C@@H]1C(c2ccc(OC)cc2)=NO[C@H]1c1cc(OC)c(O)c2c1C[C@@H]1[C@@H]3C=C(OC)C(=O)C[C@]23CCN1C	83.9 µM	inactive	–
COC(=O)[C@H]1C(c2ccc(Cl)cc2)=NO[C@@H]1c1cc(OC)c(O)c2c1C[C@@H]1[C@@H]3C=C(OC)C(=O)C[C@]23CCN1C	66.7 µM	Active	–
COCCOC(=O)/C=C/c1cc(OC)c(O)c2c1C[C@@H]1[C@@H]3C=C(OC)C(=O)C[C@]23CCN1C	> 100 µM	–	–
COC1=C[C@H]2[C@H]3Cc4c(/C=C/C(=O)OC(C)(C)C)cc(OC)c(O)c4[C@@]2(CCN3C)CC1=O	> 100 µM	–	–
CCCCOC(=O)/C=C/c1cc(OC)c(O)c2c1C[C@@H]1[C@@H]3C=C(OC)C(=O)C[C@]23CCN1C	80 µM	Active	–
COC(=O)[C@H]1C(c2ccccc2)=NO[C@@H]1c1cc(OC)c(O)c2c1C[C@@H]1[C@@H]3C=C(OC)C(=O)C[C@]23CCN1C	> 100 µM	Active	–
COC(=O)[C@@H]1C(c2ccc(Br)cc2)=NO[C@H]1c1cc(OC)c(O)c2c1C[C@@H]1[C@@H]3C=C(OC)C(=O)C[C@]23CCN1C	53.1 µM	inactive	–
COC(=O)[C@@H]1C(c2ccc(C)cc2)=NO[C@H]1c1cc(OC)c(O)c2c1C[C@@H]1[C@@H]3C=C(OC)C(=O)C[C@]23CCN1C	78 µM	Active	–
CCCCCCOC(=O)/C=C/c1cc(OC)c(O)c2c1C[C@@H]1[C@@H]3C=C(OC)C(=O)C[C@]23CCN1C	38.9 µM	Active	inhibition [3]: Active
COC(=O)[C@@H]1C(c2cccc(C)c2)=NO[C@H]1c1cc(OC)c(O)c2c1C[C@@H]1[C@@H]3C=C(OC)C(=O)C[C@]23CCN1C	78.3 µM	Active	–
COc1ccc2c(c1)c(CC(=O)O)c(C)n2C(=O)c1ccc(Cl)cc1	–	–	inhibition [4]: Active
COC(=O)[C@@H]1C(c2cccc(Cl)c2)=NO[C@H]1c1cc(OC)c(O)c2c1C[C@@H]1[C@@H]3C=C(OC)C(=O)C[C@]23CCN1C	78.3 µM	inactive	–
